Experimental data: the supplement of paper PMC10307832

Experiments:
Experiment in all cases: relative viability (nuclei count vs DMSO), 5 days (fraction); higher = more cells survive
BMX-IN-1 + Navitoclax = compound: C=CC(=O)Nc1cc(-n2c(=O)ccc3cnc4ccc(-c5ccc(NS(C)(=O)=O)cc5)cc4c32)ccc1C [BMX-IN-1] + CC1(C)CCC(c2ccc(Cl)cc2)=C(CN2CCN(c3ccc(C(=O)NS(=O)(=O)c4ccc(N[C@H](CCN5CCOCC5)CSc5ccccc5)c(S(=O)(=O)C(F)(F)F)c4)cc3)CC2)C1 [Navitoclax] (partner 0.5 µM)
In short: (§1)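 Five library-drug doses in √10 steps were combined with a fixed anchor-drug dose, or a single drug was given alone, by pin tool to lung cancer cell lines in 1536-well plates the day after seeding. Nuclei were stained and counted after 5 days. Relative viability is the nuclei count in treated wells over that in vehicle wells, taken as the median of duplicate plates.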

Ibrutinib + Linsitinib = compound: C=CC(=O)N1CCC[C@@H](n2nc(-c3ccc(Oc4ccccc4)cc3)c3c(N)ncnc32)C1 [Ibrutinib] + C[C@]1(O)C[C@@H](c2nc(-c3ccc4ccc(-c5ccccc5)nc4c3)c3c(N)nccn32)C1 [Linsitinib] (partner 1 µM)
In short: as §1

BMX-IN-1 + Crizotinib = compound: C=CC(=O)Nc1cc(-n2c(=O)ccc3cnc4ccc(-c5ccc(NS(C)(=O)=O)cc5)cc4c32)ccc1C [BMX-IN-1] + C[C@@H](Oc1cc(-c2cnn(C3CCNCC3)c2)cnc1N)c1c(Cl)ccc(F)c1Cl [Crizotinib] (partner 1 µM)
In short: as §1

Ibrutinib + Palbociclib = compound: C=CC(=O)N1CCC[C@@H](n2nc(-c3ccc(Oc4ccccc4)cc3)c3c(N)ncnc32)C1 [Ibrutinib] + CC(=O)c1c(C)c2cnc(Nc3ccc(N4CCNCC4)cn3)nc2n(C2CCCC2)c1=O [Palbociclib] (partner 0.5 µM)
In short: as §1

| Cell Line | relative viability (BMX-IN-1 + Navitoclax; first compound 0.02 µM) | relative viability (BMX-IN-1 + Navitoclax; first compound 0.2 µM) | relative viability (BMX-IN-1 + Navitoclax; first compound 0.6325 µM) | relative viability (BMX-IN-1 + Navitoclax; first compound 2 µM) | relative viability (Ibrutinib + Linsitinib; first compound 0.005 µM) | relative viability (Ibrutinib + Linsitinib; first compound 0.01581 µM) | relative viability (Ibrutinib + Linsitinib; first compound 0.05 µM) | relative viability (Ibrutinib + Linsitinib; first compound 0.1581 µM) | relative viability (Ibrutinib + Linsitinib; first compound 0.5 µM) | relative viability (BMX-IN-1 + Crizotinib; first compound 0.02 µM) | relative viability (BMX-IN-1 + Crizotinib; first compound 0.2 µM) | relative viability (BMX-IN-1 + Crizotinib; first compound 0.6325 µM) | relative viability (BMX-IN-1 + Crizotinib; first compound 2 µM) | relative viability (Ibrutinib + Palbociclib; first compound 0.005 µM) | relative viability (Ibrutinib + Palbociclib; first compound 0.01581 µM) | relative viability (Ibrutinib + Palbociclib; first compound 0.05 µM) | relative viability (Ibrutinib + Palbociclib; first compound 0.1581 µM) | relative viability (Ibrutinib + Palbociclib; first compound 0.5 µM) |
| --- | --- | --- | --- | --- | --- | --- | --- | --- | --- | --- | --- | --- | --- | --- | --- | --- | --- | --- |
| NCI-H1666 | 1.09 | 0.979 | 0.938 | 0.92 | 0.86 | 0.628 | 0.615 | 0.955 | 0.422 | 1.08 | 0.98 | 1.05 | 0.906 | 0.647 | 0.692 | 0.639 | 0.631 | 0.659 |
| NCI-H1734 | 1.01 | 0.907 | 0.953 | 0.949 | 0.801 | 0.887 | 0.885 | 0.885 | 0.745 | 0.797 | 0.807 | 0.794 | 0.703 | 0.374 | 0.332 | 0.384 | 0.346 | 0.357 |
| NCI-H1755 | 1.01 | 1.05 | 1.07 | 1.03 | 1.02 | 0.92 | 1.06 | 1.02 | 0.903 | 1.01 | 1.07 | 0.958 | 0.843 | 0.473 | 0.442 | 0.467 | 0.455 | 0.495 |
| NCI-H1792 | 0.559 | 0.632 | 0.49 | 0.724 | 0.553 | 0.44 | 0.506 | 0.608 | 0.53 | 0.886 | 1.7 | 0.855 | 0.977 |  | 0.593 | 0.757 |  | 0.683 |
| NCI-H1915 | 0.808 | 0.793 | 0.764 | 0.777 |  | 1.03 | 1.12 | 1.13 | 1.1 | 1.28 | 0.964 | 0.946 | 0.977 | 0.519 | 0.517 | 0.554 | 0.506 | 0.532 |
| NCI-H1944 | 0.992 | 1.11 | 1.02 | 1.08 | 1.05 | 1.01 | 1.23 | 1.05 | 0.568 | 1.21 | 1.28 | 1.21 | 1.07 | 0.297 | 0.285 | 0.273 | 0.301 | 0.255 |
| NCI-H1975 | 1.34 | 1.19 | 1.34 | 1 | 0.916 | 0.834 | 0.844 | 0.985 | 0.503 | 1.31 | 1.02 | 1.11 | 0.86 | 0.546 | 0.446 | 0.502 | 0.457 | 0.17 |
| NCI-H1993 | 1.07 | 0.875 |  | 0.958 | 0.738 | 0.698 | 0.694 |  | 0.647 | 0.912 | 0.873 |  | 0.835 | 0.388 | 0.56 | 1.64 | 0.714 | 0.466 |
| NCI-H2009 | 1.23 | 1.31 | 1.19 | 1.24 | 1.21 | 1.13 | 1.14 | 1.23 | 1.18 | 1.11 | 1.07 | 1.26 | 1.06 | 0.136 | 0.214 | 0.183 | 0.169 | 0.288 |
| NCI-H2023 | 1.36 | 1.15 | 1.12 | 0.988 | 0.601 | 0.494 | 0.53 | 0.596 | 0.456 | 0.865 | 0.639 | 0.753 | 0.676 | 0.33 | 0.292 | 0.346 | 0.41 | 0.311 |
| NCI-H2085 | 1.23 | 1.31 | 1.2 | 1.07 | 1.04 | 0.884 | 0.865 | 0.895 | 0.775 | 0.98 | 0.815 | 0.897 | 0.855 | 0.467 | 0.469 | 0.425 | 0.47 | 0.44 |
| NCI-H2087 | 1.03 | 1.18 | 1.01 | 1.08 | 1.07 | 1.06 |  | 1.02 | 0.943 | 0.902 | 1.02 | 1.01 | 1.03 | 0.243 | 0.217 | 0.161 |  |  |
| NCI-H2126 | 0.836 | 0.945 | 0.876 | 0.907 |  | 0.66 | 0.705 | 0.732 | 0.539 | 1.2 | 1.06 | 1.15 | 1.1 | 0.348 | 0.322 | 0.34 | 0.342 | 0.345 |
| NCI-H2228 | 0.954 | 0.853 | 1.44 | 0.969 | 0.62 | 0.689 | 0.71 | 0.936 | 0.454 | 0.52 | 0.354 | 0.417 | 0.495 | 0.912 | 0.687 | 0.697 | 0.947 | 0.779 |
| NCI-H2347 | 0.978 | 0.887 | 0.785 | 0.871 |  | 0.979 | 1.04 | 0.816 | 1.05 | 0.735 | 0.678 | 0.675 | 0.624 | 0.391 | 0.386 | 0.478 | 0.492 | 0.428 |
| NCI-H2405 | 0.957 | 0.846 | 0.915 | 0.836 | 0.849 | 0.801 | 0.929 |  | 0.869 | 0.939 | 0.892 | 0.903 | 0.886 | 0.49 | 0.514 |  |  | 0.525 |
| NCI-H3122 | 1.1 | 1.06 | 1.02 | 1.05 |  | 1.03 | 1.03 | 0.992 | 1.07 | 0.3 | 0.27 | 0.271 | 0.3 | 0.188 | 0.178 | 0.184 | 0.176 | 0.196 |
| PC-3 [JPC-3] | 0.728 | 0.823 | 0.746 | 0.871 | 0.917 | 0.93 | 0.956 | 0.955 | 0.619 | 1.34 | 1.03 | 1.03 | 0.99 | 0.585 | 0.527 | 0.515 | 0.54 | 0.486 |
